Laboratory results published in patent US20260092061A1, “COMPOUNDS FOR TARGETED PROTEIN DEGRADATION” (Amphista Therapeutics Limited, priority 2022, published 2026).
Where two headings read alike, the source gives them in different places.

Molecular target: T1, BRD9 (Homo sapiens, UniProt Q9H8M2)
T1 sequence (Q9H8M2 1-597): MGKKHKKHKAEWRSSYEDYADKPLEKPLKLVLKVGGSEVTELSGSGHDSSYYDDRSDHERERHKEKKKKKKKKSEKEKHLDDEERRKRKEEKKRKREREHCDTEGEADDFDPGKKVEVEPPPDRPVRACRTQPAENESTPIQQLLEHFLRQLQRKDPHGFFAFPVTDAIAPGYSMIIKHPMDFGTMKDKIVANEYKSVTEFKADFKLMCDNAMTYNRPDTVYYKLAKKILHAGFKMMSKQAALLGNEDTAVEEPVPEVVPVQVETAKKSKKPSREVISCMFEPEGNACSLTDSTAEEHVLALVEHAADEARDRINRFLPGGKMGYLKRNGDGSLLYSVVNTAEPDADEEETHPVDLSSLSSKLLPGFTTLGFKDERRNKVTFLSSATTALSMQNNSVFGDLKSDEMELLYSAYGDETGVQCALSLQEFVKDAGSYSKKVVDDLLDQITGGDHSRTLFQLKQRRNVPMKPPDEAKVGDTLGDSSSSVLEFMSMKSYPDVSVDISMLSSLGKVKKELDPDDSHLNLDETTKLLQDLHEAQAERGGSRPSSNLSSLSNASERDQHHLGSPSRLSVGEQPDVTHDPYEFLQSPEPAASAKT
Test: Degradation of BRD9 (IF), immunofluorescence in MV4-11 cells, 24 hours (Assay Protocol 2)
Format: cell-based
Design: A suspension of MV4-11 cells (ATCC CRL-9591) was prepared; host or cells: MV4-11
Conditions: BRD9 degradation
Procedure: Assay Protocol 2—Degradation of BRD9 (IF)
A suspension of MV4-11 cells (ATCC CRL-9591) was prepared in phenol red-free assay media (IMDM Thermo Scientific 21056023+10% FBS ATCC 302025) and cells were seeded at 20,000 cells per well (45 μL) in sterile black poly-d-lysine coated 384 well plates (Greiner 781948). Compounds were prepared at 1000× final concentration in DMSO, diluted 1:100 in assay media, and 5 μL compound was added to each well of the cell plate. Cells were incubated for 24 hours at 37° C. with 5% CO2. All the following incubations for immunofluorescence staining were at room temperature. 15 μL of 16% PFA was added to each well (3.7% final concentration) and the cells were fixed for 15 min then washed twice with DPBS. Cells were permeabilised with 0.1% Triton X-100 for 10 min, Triton X-100 was removed, then blocked with 1% BSA in DPBS for 1 hour. Cells were stained with 25 μL anti-BRD9 E4Q3F antibody (CST 48306) diluted 1:25600 in 1% BSA in DPBS for 2-3 hours. Wels were washed twice with DPBS then incubated with 25 μL of 1% BSA containing a 1:1000 dilution of Anti-rabbit Alexa Fluor™ 647 secondary antibody (Thero Scientific A21244) and 1 μg/mL Hoechst nuclear counter stain (Abcam ab228551) for 1 hour. Wells were washed twice with DPBS prior to imaging on a Perkin Elmer Operetta CLS with 10× air lens. Images were processed using Harmony High-Content Imaging and Analysis Software (Perkin Elmer) and the mean contrast ratio of Alexa Fluor™ 647 in central nuclei was used to quantify BRD9 protein levels. Data was further analysed using Dotmatics software and % BRD9 remaining was calculated by normalisation to average data from high and low control wells (cells treated with DMSO or 100 nM CFT-8634 respectively).

[1] = Assay protocol 2, read-out: DC50
[2] = MV4-11, Assay protocol 2, read-out: Dmax

| SMILES | Dmax (MV4-11, Table 4, determined according to Assay Protocol 2, read-out: Dmax^2) | DC50 (Table 4, determined according to Assay Protocol 2, read-out: DC50^2) | DC50 [1] | Dmax [2] |
| --- | --- | --- | --- | --- |
| COc1cc(-c2cn(C)c(=O)c(C)c2C)cc(OC)c1CN1C2CC1CN(C(=O)/C(C#N)=C/c1cc(C)on1)C2 (mixture of isomers) [BRD9y, (E/Z)-2-(6-(2,6-dimethoxy-4-(1,4,5-trimethyl-6-oxo-1,6-dihydropyridin-3-yl)benzyl)-3,6-diazabicyclo[3.1.1]heptane-3-carbonyl)-3-(5-methylisoxazol-3-yl)acrylonitrile] | 30 to 50% | < 25 nM | – | – |
| COc1cc(-c2cn(C)c(=O)c(C)c2C)cc(OC)c1CN1CCC(Oc2cccc(C3CCCN3C(=O)/C(C#N)=C/C(C)(C)C)c2)CC1 (mixture of isomers) [Compound B48, (E/Z)-2-(2-(3-((1-(2,6-dimethoxy-4-(1,4,5-trimethyl-6-oxo-1,6-dihydropyridin-3-yl)benzyl)piperidin-4-yl)oxy)phenyl)pyrrolidine-1-carbonyl)-4,4-dimethylpent-2-enenitrile] | – | – | 1.25 to 10 nM | > 75% |
| COc1cc(-c2cn(C)c(=O)c(C)c2C)cc(OC)c1CN1CCN(Cc2cccc3c2CCN(C(=O)/C(C#N)=C/c2cccc(Br)n2)C3C)CC12CC2 (mixture of isomers) [Compound B61, (E/Z)-3-(6-bromopyridin-2-yl)-2-(5-((4-(2,6-dimethoxy-4-(1,4,5-trimethyl-6-oxo-1,6-dihydropyridin-3-yl)benzyl)-4,7-diazaspiro[2.5]octan-7-yl)methyl)-1-methyl-1,2,3,4-tetrahydroisoquinoline-2-carbonyl)acrylonitrile] | – | – | 1.25 to 10 nM | > 75% |
| COc1cc(-c2cn(C)c(=O)c(C)c2C)cc(OC)c1CN1CC(Oc2cccc(C3CCCN3C(=O)/C(C#N)=C/C(C)(C)C)c2)C1 (mixture of isomers) [Compound B62, (E/Z)-2-(2-(3-((1-(2,6-dimethoxy-4-(1,4,5-trimethyl-6-oxo-1,6-dihydropyridin-3-yl)benzyl)azetidin-3-yl)oxy)phenyl)pyrrolidine-1-carbonyl)-4,4-dimethylpent-2-enenitrile] | – | – | 1.25 to 10 nM | > 75% |
| COc1cc(-c2cn(C)c(=O)c(C)c2C)cc(OC)c1CN1CCC(Oc2cccc3c2CCN(C(=O)/C(C#N)=C/c2ccc(C(F)(F)F)cn2)C3C)CC1 (mixture of isomers) [Compound B64, (E/Z)-2-(5-((1-(2,6-dimethoxy-4-(1,4,5-trimethyl-6-oxo-1,6-dihydropyridin-3-yl)benzyl)piperidin-4-yl)oxy)-1-methyl-1,2,3,4-tetrahydroisoquinoline-2-carbonyl)-3-(5-(trifluoromethyl)pyridin-2-yl)acrylonitrile] | – | – | < 1.25 nM | > 75% |
| COc1cc(-c2cn(C)c(=O)c(C)c2C)cc(OC)c1C(=O)N1CCCN(Cc2cccc3c2CCN(C(=O)/C(C#N)=C/C(C)(C)C)C3C)CC1 (mixture of isomers) [Compound B65, (E/Z)-2-(5-((4-(2,6-dimethoxy-4-(1,4,5-trimethyl-6-oxo-1,6-dihydropyridin-3-yl)benzoyl)-1,4-diazepan-1-yl)methyl)-1-methyl-1,2,3,4-tetrahydroisoquinoline-2-carbonyl)-4,4-dimethylpent-2-enenitrile] | – | – | 1.25 to 10 nM | > 75% |
| COc1cc(-c2cn(C)c(=O)c(C)c2C)cc(OC)c1CN1CC[C@H](Oc2cccc(C3CCCN3C(=O)/C(C#N)=C/C(C)(C)C)c2)C1 (mixture of isomers) [Compound B67, (E/Z)-2-(2-(3-(((S)-1-(2,6-dimethoxy-4-(1,4,5-trimethyl-6-oxo-1,6-dihydropyridin-3-yl)benzyl)417yrrolidine-3-yl)oxy)phenyl)pyrrolidine-1-carbonyl)-4,4-dimethylpent-2-enenitrile] | – | – | 1.25 to 10 nM | > 75% |
| COc1cc(-c2cn(C)c(=O)c(C)c2C)cc(OC)c1CN1CCCN(Cc2cccc3c2CCN(C(=O)/C(C#N)=C/c2cccc(C(F)(F)F)n2)C3C)CC1 (mixture of isomers) [Compound B68, (E/Z)-2-(5-((4-(2,6-dimethoxy-4-(1,4,5-trimethyl-6-oxo-1,6-dihydropyridin-3-yl)benzyl)-1,4-diazepan-1-yl)methyl)-1-methyl-1,2,3,4-tetrahydroisoquinoline-2-carbonyl)-3-(6-(trifluoromethyl)pyridin-2-yl)acrylonitrile] | – | – | < 1.25 nM | > 75% |
| COc1cc(-c2cn(C)c(=O)c(C)c2C)cc(OC)c1CN1CCN(Cc2cccc3c2CCN(C(=O)/C(C#N)=C/C2CCOCC2)C3C)CC1 (mixture of isomers) [Compound B69, (E/Z)-2-(5-((4-(2,6-dimethoxy-4-(1,4,5-trimethyl-6-oxo-1,6-dihydropyridin-3-yl)benzyl)piperazin-1-yl)methyl)-1-methyl-1,2,3,4-tetrahydroisoquinoline-2-carbonyl)-3-(tetrahydro-2H-pyran-4-yl)acrylonitrile] | – | – | 1.25 to 10 nM | 40 to 70% |
| COc1cc(-c2cn(C)c(=O)c(C)c2C)cc(OC)c1CN1CCN(Cc2cccc3c2CCN(C(=O)/C(C#N)=C/c2cccnc2OC)C3C)CC1 (mixture of isomers) [Compound B70, (E/Z)-2-(5-((4-(2,6-dimethoxy-4-(1,4,5-trimethyl-6-oxo-1,6-dihydropyridin-3-yl)benzyl)piperazin-1-yl)methyl)-1-methyl-1,2,3,4-tetrahydroisoquinoline-2-carbonyl)-3-(2-methoxypyridin-3-yl)acrylonitrile] | – | – | – | 40 to 70% |
| COc1ccc(/C=C(\C#N)C(=O)N2CCc3c(CN4CCN(Cc5c(OC)cc(-c6cn(C)c(=O)c(C)c6C)cc5OC)CC4)cccc3C2C)cn1 (mixture of isomers) [Compound B71, (E/Z)-2-(5-((4-(2,6-dimethoxy-4-(1,4,5-trimethyl-6-ox0-1,6-dihydropyridin-3-yl)benzyl)piperazin-1-yl)methyl)-1-methyl-1,2,3,4-tetrahydroisoquinoline-2-carbonyl)-3-(6-methoxypyridin-3-yl)acrylonitrile] | – | – | 1.25 to 10 nM | 40 to 70% |
| COc1cc(-c2cn(C)c(=O)c(C)c2C)cc(OC)c1CN1CCN(Cc2cccc3c2CCN(C(=O)/C(C#N)=C/C2CCC(F)(F)CC2)C3C)CC1 (mixture of isomers) [Compound B72, (E/Z)-3-(4,4-difluorocyclohexyl)-2-(5-((4-(2,6-dimethoxy-4-(1,4,5-trimethyl-6-oxo-1,6-dihydropyridin-3-yl)benzyl)piperazin-1-yl)methyl)-1-methyl-1,2,3,4-tetrahydroisoquinoline-2-carbonyl)acrylonitrile] | – | – | 1.25 to 10 nM | 40 to 70% |
| COc1cc(-c2cn(C)c(=O)c(C)c2C)cc(OC)c1CN1CCN(Cc2cccc3c2CCN(C(=O)/C(C#N)=C/C2CCCCC2)C3C)CC1 (mixture of isomers) [Compound B73, (E/Z)-3-cyclohexyl-2-(5-((4-(2,6-dimethoxy-4-(1,4,5-trimethyl-6-oxo-1,6-dihydropyridin-3-yl)benzyl)piperazin-1-yl)methyl)-1-methyl-1,2,3,4-tetrahydroisoquinoline-2-carbonyl)acrylonitrile] | – | – | 25 to 1000 nM | 40 to 70% |
| COc1cc(-c2cn(C)c(=O)c(C)c2C)cc(OC)c1CN1CCN(Cc2cccc3c2CCN(C(=O)/C(C#N)=C/c2cccc(C#N)c2)C3C)CC1 (mixture of isomers) [Compound B74, (E/Z)-3-(2-cyano-3-(5-((4-(2,6-dimethoxy-4-(1,4,5-trimethyl-6-oxo-1,6-dihydropyridin-3-yl)benzyl)piperazin-1-yl)methyl)-1-methyl-3,4-dihydroisoquinolin-2(1H)-yl)-3-oxoprop-1-en-1-yl) benzonitrile] | – | – | < 1.25 nM | 40 to 70% |
